Test results reported in patent US20060194800A1, “Pteridine derivatives as nitric oxide synthase activators” (University of Strathclyde, priority 2005, published 2006).

Key:
eNOS [1] = experiment: eNOS immunostaining in endothelium of small pulmonary arteries of treated rats; format: in vivo, rat; settings: 14.1 mg/kg/day s.c.
Procedure: Rats were maintained in a chamber containing atmospheric air at 550 mbar for 14 days. […] A group of normotensive and a group of pulmonary hypertensive rats received daily subcutaneous injections of WSG1002 in a dose of 14.1 mg/kg/day during the time that they were in the hypoxic chamber. Other groups of normotensive and pulmonary hypertensive rats had no drugs and are used as control comparison groups. These studies used lungs from the four groups of rats (1) pulmonary hypertensive and treated with WSG1002, (2) normotensive and treated with WSG1002, (3) pulmonary hypertensive and not treated with WSG1002 (4) normotensive and not treated with WSG1002. The rat lungs were fixed with 4% formaldehyde, wax embedded, and 3 μm thick sections were cut. The sections were mounted on silanated slides, rehydrated and treated with 0.3% H2O2 to block endogenous peroxidase activity. Antigens were unmasked by treatment in a microwave oven. […] In the endothelium, the intensity of staining was quantified on a scale of 0-3, where 0=no staining or the same as the negative control, 1=faint staining or staining in a few target cells, 2=moderate staining in most target cells, 3=the maximum staining observed with that antibody in the positive control slides.

eNOS [2] = biological target: T1, eNOS (Sus scrofa, UniProt Q28969); experiment: Endothelial cell assay, nitric oxide (NO2+NO3) production; format: cell-based, porcine; settings: 30 μM in DMSO, seven days, DAHP-depleted endothelial cells
T1 construct: endothelial cells that produce eNOS; endogenous in cells; host or cells: primary porcine pulmonary artery endothelial cells
T1 sequence (Q28969 2-1205 limits assumed): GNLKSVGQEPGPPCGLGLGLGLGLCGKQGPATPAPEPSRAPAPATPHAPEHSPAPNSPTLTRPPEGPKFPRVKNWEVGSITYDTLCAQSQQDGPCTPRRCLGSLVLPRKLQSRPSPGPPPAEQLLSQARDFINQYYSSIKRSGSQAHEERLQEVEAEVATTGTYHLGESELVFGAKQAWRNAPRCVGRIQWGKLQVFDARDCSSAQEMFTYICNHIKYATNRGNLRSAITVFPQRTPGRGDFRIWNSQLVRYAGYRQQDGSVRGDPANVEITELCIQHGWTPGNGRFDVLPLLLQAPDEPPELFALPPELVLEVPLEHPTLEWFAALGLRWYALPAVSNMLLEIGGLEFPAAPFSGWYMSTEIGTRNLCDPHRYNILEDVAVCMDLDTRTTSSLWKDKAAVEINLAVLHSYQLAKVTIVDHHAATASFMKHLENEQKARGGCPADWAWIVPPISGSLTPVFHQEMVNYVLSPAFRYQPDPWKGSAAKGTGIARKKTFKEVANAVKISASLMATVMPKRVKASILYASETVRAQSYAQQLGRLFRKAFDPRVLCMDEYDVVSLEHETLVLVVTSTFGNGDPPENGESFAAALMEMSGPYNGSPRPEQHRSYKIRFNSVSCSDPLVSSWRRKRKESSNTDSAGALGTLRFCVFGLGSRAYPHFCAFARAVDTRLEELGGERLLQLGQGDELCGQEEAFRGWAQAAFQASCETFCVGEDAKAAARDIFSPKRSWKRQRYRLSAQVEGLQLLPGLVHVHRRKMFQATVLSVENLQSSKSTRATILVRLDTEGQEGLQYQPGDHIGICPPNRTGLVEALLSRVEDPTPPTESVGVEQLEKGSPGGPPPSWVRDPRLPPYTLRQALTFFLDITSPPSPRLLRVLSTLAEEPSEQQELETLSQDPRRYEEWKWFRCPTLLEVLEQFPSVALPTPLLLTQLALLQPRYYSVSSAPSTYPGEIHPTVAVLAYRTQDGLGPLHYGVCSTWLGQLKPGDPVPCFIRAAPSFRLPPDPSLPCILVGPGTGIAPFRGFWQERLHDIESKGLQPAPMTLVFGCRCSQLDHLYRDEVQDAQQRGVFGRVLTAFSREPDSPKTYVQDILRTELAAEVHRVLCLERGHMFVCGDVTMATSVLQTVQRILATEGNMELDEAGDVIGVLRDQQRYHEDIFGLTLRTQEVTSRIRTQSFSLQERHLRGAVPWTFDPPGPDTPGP
Procedure: The arterial assay is sensitive but slow to perform, and therefore a wider range of compounds was investigated in whole cell preparations. Tests have been carried out using endothelial cells that produce eNOS and stimulated macrophages that produce iNOS. Endothelial cells were isolated from porcine pulmonary artery and grown to confluency in T75 flasks. Subsequently, the cells were seeded into 6-well plates. At confluency, the medium (1 ml/well) was changed and the relevant treatment introduced to all wells in each plate (one treatment/plate). The cells were incubated for a further 7-day period and the experiment was terminated. The media from the wells of respective plates was combined (˜6 mls) and evaporated to approximately 500 μl (˜10-fold). A 50 μl aliquot was removed and any NO3 was converted to NO2 using the NO3 conversion method (Calbiochem Cat No 482702). These treated samples were then assayed using the Greiss reaction as described above giving the content of the combination of (NO2+NO3). WSG1002, as a representative compound, was incubated with a preparation of endothelial cells over seven days in order to accumulate sufficient nitric oxide for assay as described above. Controls included vehicle (0.5% DMSO) and L-NAME (an established NOS inhibitor). WSG1002 caused a doubling of nitric oxide compared with vehicle control.

nitric oxide production compared with vehicle control (eNOS [2]): doubling
SMILES: CC(=O)C1=Nc2c(nc(N)[nH]c2=O)NC1(C)C [wsg1002, 6-Acetyl-2-amino-7,7-dimethyl-7,8-dihydro-3H-pteridin-4-one]
eNOS staining in small pulmonary artery endothelium (eNOS [1]; normotensive rats): increased staining for eNOS | eNOS staining in small pulmonary artery endothelium (eNOS [1]; pulmonary hypertensive rats vs treated normotensive): no further increase
